PubChem BioAssay (NCI)
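Test compounds were applied to cells in 96-well plates for 48 hours at 5 doses. At the GI50, growth is halved. TGI denotes the concentration required for complete inhibition of growth.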

Tests used:
Experiment in all cases: inhibition of tumour cell growth, NCI panel, 48 h
[1] = test system: COLO 205 colon
[2] = test system: HL-60(TB) leukemia
[3] = test system: K-562 leukemia
[4] = test system: HOP-92 NSCLC
[5] = test system: HCC-2998 colon
[6] = test system: SK-MEL-2 melanoma
[7] = test system: NCI-H460 lung
[8] = test system: SW-620 colon
[9] = test system: UACC-257 melanoma
[10] = test system: DU-145 prostate

| Structure (SMILES) | TGI [1] [µM] | TGI [2] [µM] | TGI [3] [µM] | TGI [4] [µM] | TGI [5] [µM] | TGI [6] [µM] | TGI [7] [µM] | TGI [8] [µM] | TGI [9] [µM] | TGI [10] [µM] | GI50 [1] [µM] | GI50 [2] [µM] | GI50 [3] [µM] | GI50 [6] [µM] | GI50 [10] [µM] | GI50 [7] [µM] | GI50 [9] [µM] |
| --- | --- | --- | --- | --- | --- | --- | --- | --- | --- | --- | --- | --- | --- | --- | --- | --- | --- |
| COc1cc2c(cc1C)n(O)c(C)c(C(=O)C/C(=N/NC(=O)C[N+](C)(C)C)C(=O)Nc1cccc(Cl)c1C)[n+]2=O | > 100 | > 100 | > 100 | > 100 | > 100 | > 100 | > 100 | > 100 | > 100 |  |  |  |  |  |  |  |  |
| Cc1ccc(N2C(=O)/C(=C3\Sc4c(nc(C)[nH]c4=O)N3c3ccccc3)SC2=S)cc1 | > 100 | > 100 | 95.8 | 97.3 |  | > 100 | > 100 | > 100 | > 100 |  |  |  |  |  |  |  |  |
| O=[N+]([O-])c1ccccc1C1N2CCCCC2[C@@H]2c3[nH]c4ccccc4c3CCN12 (stereo partly specified) | 25.8 | 16.8 | 14 | 29.2 |  | 26.5 | 34.7 | 23.4 | 26.7 |  |  |  |  |  |  |  |  |
| COc1ccc(O)c2c1C(=O)CCCC2=O | > 100 | > 100 | > 100 |  | > 100 | > 100 | > 100 | > 100 | > 100 |  |  |  |  |  |  |  |  |
| O=c1c([Se]c2coc3ccccc3c2=O)coc2ccccc12 | 29.7 | > 100 | > 100 | 31.7 | 33.2 | 32.4 | 14 | 34.3 | 31.3 |  |  |  |  |  |  |  |  |
| CC[C@@H]1OC2(C)CC(S(=O)(=O)c3ccccc3)CC1O2 (stereo partly specified) | > 100 | > 100 | > 100 | > 100 | > 100 | > 100 | > 100 | > 100 | > 100 |  |  |  |  |  |  |  |  |
| C[Si](C)(C)/C=C/CN1C(=O)CCC1O (stereo unspecified) | > 100 | > 100 | > 100 | > 100 | > 100 | > 100 | > 100 | > 100 | > 100 |  |  |  |  |  |  |  |  |
| Cc1nc(C(N)=S)sc1C(=O)/C=C/c1cccc(O)c1 | > 100 | > 100 | 78.3 | > 100 | > 100 | > 100 | > 100 | > 100 | > 100 |  |  |  |  |  |  |  |  |
| COC(=O)C1=C(C(=O)OC)C2(C(=O)OC)OC1(OC)C(C1(C(=O)OC)C(C(=O)OC)=C1C(=O)OC)=C2C(=O)OC (stereo unspecified) | > 100 | > 100 | > 100 | > 100 | > 100 | > 100 | > 100 | > 100 | > 100 |  |  |  |  |  |  |  |  |
| CC1OC(O)C(O)C(O)C1O (stereo unspecified) | > 100 |  | > 100 | > 100 |  | > 100 | > 100 | > 100 | > 100 | > 100 |  |  |  |  |  |  |  |
| CCN(CC)CCCNC(=O)Cc1ccccc1Nc1c(Cl)cccc1Cl | 28.3 | 27.5 | 21.6 |  | 11.5 |  |  | 32.8 | 13.2 |  |  |  |  |  |  |  |  |
| COC1=C(OC)CCC(/C(C#N)=C/c2ccc(OC)c(OC)c2)=C1 | > 100 |  | > 100 | > 100 | > 100 | > 100 | > 100 | > 100 | > 100 |  |  |  |  |  |  |  |  |
| CCc1cccc(C)c1NC(=O)NS(=O)(=O)c1ccc(C)cc1 | > 100 | > 100 | > 100 | > 100 | > 100 | > 100 | > 100 | > 100 | > 100 |  |  |  |  |  |  |  |  |
| O=[N+]([O-])c1ccc(Cl)c(C2SCc3nc4ccccc4n32)c1 (stereo unspecified) | > 100 | 78.5 | > 100 | 45.3 | > 100 | > 100 | 81.1 | 88.3 | 93 |  |  |  |  |  |  |  |  |
| CC(=O)/C(C)=N/N/C(N)=N\S(=O)(=O)c1cc(C(=O)Nc2ccccc2)c(Cl)cc1SCc1ccccc1 | > 100 | 24.2 | > 100 |  |  | > 100 | 79.3 |  | > 100 | > 100 | > 100 | 2.36 | 5.54 | 43.5 | 3.5 | 18 | 34.8 |
| COc1cccc(C2C(C(=O)Nc3cc(=O)n(C)c(=O)n3C)=C(C)NC(C)=C2C(=O)Nc2cc(=O)n(C)c(=O)n2C)c1O | > 100 | > 100 | > 100 | > 100 | > 100 | > 100 | > 100 | > 100 | > 100 |  |  |  |  |  |  |  |  |
| O=C1C(c2ccccc2)=C(c2ccccc2)C(c2ccc(CCCCCCc3ccc(C4=C(c5ccccc5)C(=O)C(c5ccccc5)=C4c4ccccc4)cc3)cc2)=C1c1ccccc1 | > 100 | > 100 | > 100 | > 100 | > 100 | > 100 | > 100 | > 100 | > 100 |  |  |  |  |  |  |  |  |

| Structure (SMILES) | TGI [1] [µM] | TGI [2] [µM] | TGI [3] [µM] | TGI [4] [µM] | TGI [5] [µM] | TGI [6] [µM] | TGI [7] [µM] | TGI [8] [µM] | TGI [9] [µM] | TGI [10] [µM] | GI50 [1] [µM] | GI50 [2] [µM] | GI50 [3] [µM] | GI50 [6] [µM] | GI50 [10] [µM] | GI50 [7] [µM] | GI50 [9] [µM] |
| --- | --- | --- | --- | --- | --- | --- | --- | --- | --- | --- | --- | --- | --- | --- | --- | --- | --- |
| CCOC(=O)C12CC1(C(=O)OCC)C1CCC2C1 (stereo unspecified) | > 100 | > 100 | > 100 | 95.2 | > 100 |  | > 100 | > 100 | > 100 |  |  |  |  |  |  |  |  |
| CCOC(=O)C(C)(C)Oc1ccc2c(-c3ccc(Cl)cc3)cc(=O)oc2c1 | > 100 | > 100 | > 100 |  | > 100 | > 100 | > 100 | > 100 | > 100 |  |  |  |  |  |  |  |  |
| CN(O)C(=O)Cc1ccccc1 | > 100 | > 100 | > 100 | > 100 | > 100 |  | > 100 | > 100 | > 100 |  |  |  |  |  |  |  |  |
| Cc1cc(C)c(C(=O)OC(c2ccccc2)C(c2ccccc2)N2CCOCC2)c(C)c1 (stereo unspecified) | > 100 | > 100 | > 100 |  | > 100 | > 100 | > 100 | > 100 | > 100 |  |  |  |  |  |  |  |  |
| CC1=C2C(c3ccccc3)(c3ccccc3)C3C=CC2(C=N3)N(C(=O)NC2CCCCC2)C1=O (stereo unspecified) | 29.3 | 30.2 | 34.6 | 27.4 | 32.4 |  |  | 31.9 | 30.9 |  |  |  |  |  |  |  |  |
| COc1ccccc1/C=C\c1cc(OC)c(OC)c(OC)c1 | 16.9 | 20.1 | > 100 | 81.6 |  |  | > 100 | > 100 | > 100 |  |  |  |  |  |  |  |  |
| CCNCC(O)c1ccc(N)c([N+](=O)[O-])c1 (stereo unspecified) | > 100 | > 100 | > 100 |  |  | > 100 | > 100 | > 100 | > 100 | > 100 |  |  |  |  |  |  |  |
| O=c1nc2cc(-c3ccccc3)[nH]c2nn1-c1c(Cl)cc(Cl)cc1Cl | 32.9 | 57.1 | > 100 | 64 | 32 | 94 | > 100 | > 100 | 79.6 |  |  |  |  |  |  |  |  |
| COc1ccc(C2S/C(=C\c3ccc(OC)cc3OC)C(=O)N2NC(=O)Cc2ccccc2)cc1 (stereo unspecified) | > 100 | > 100 | > 100 | > 100 |  | > 100 | > 100 | > 100 | > 100 |  |  |  |  |  |  |  |  |
| CC(=O)OC1CCC2(C)C(=CC(C3C=C4CC(OC(C)=O)CCC4(C)C4=C3C3CC5OC6(CCC(C)CO6)C(C)C5C3(C)CC4)C3=C2CCC2(C)C3CC3OC4(CCC(C)CO4)C(C)C32)C1 (stereo unspecified) | 36.1 |  | 15.2 | 27.1 |  | 33.9 |  |  | 21.9 | 27.2 |  |  |  |  |  |  |  |
| COc1cc(C2C(C(=O)Nc3ccccc3)=C(C)NC(C)=C2C(=O)Nc2ccccc2)ccc1O | 60.4 | 54.2 | > 100 | 88.5 | > 100 | 76.8 | > 100 | > 100 | > 100 |  |  |  |  |  |  |  |  |
| O=Cc1coc2ccccc2c1=O | 30.4 | 42.3 | 55.5 |  |  |  | 50.9 | 41.5 | 46.7 | > 100 |  |  |  |  |  |  |  |
| O=C1C2=C(c3ccccc31)C(c1ccccc1Cl)N1C(=O)CSC1=N2 (stereo unspecified) | > 100 | > 100 | > 100 | > 100 | > 100 | > 100 | > 100 | > 100 | > 100 |  |  |  |  |  |  |  |  |
| CCC1(CN(C)C)CC/C(=C\c2ccc3c(c2)OCO3)C1=O (stereo unspecified) | > 100 | > 100 | > 100 | > 100 | > 100 | > 100 |  | > 100 | > 100 |  |  |  |  |  |  |  |  |
| COc1ccc(C(=O)C=C2NCCN2)cc1 | > 100 | > 100 | > 100 | > 100 | > 100 | > 100 | > 100 | > 100 | > 100 |  |  |  |  |  |  |  |  |
| Cc1ccc(Nc2ccc(Nc3ccc(C)cc3)c3c2C(=O)c2c(O)ccc(O)c2C3=O)cc1 | > 100 | > 100 | > 100 | > 100 | > 100 | > 100 | > 100 | > 100 | > 100 |  |  |  |  |  |  |  |  |
| CCC1(OC(C)=O)C(=O)OCc2c1cc1n(c2=O)Cc2cc3ccccc3nc2-1 (stereo unspecified) | > 100 |  | > 100 | > 100 | > 100 | > 100 | 7.15 | > 100 | > 100 |  |  |  |  |  |  |  |  |
